Test results taken from patent US4407810A, “Thiazol-2-yl-oxamic acid derivatives, and therapeutic agents containing these compounds” (BASF Aktiengesellschaft, priority 1980, dated 1983).

Legend:
[1] = acute toxicity (LD 50), mice, intraperitoneal; conditions: mouse, in vivo, ip, NMRI mice, 14 days post-observation
Protocol: (§1) In addition to the anti-allergic action, the acute toxicity was determined for intraperitoneal administration, using groups of 2 NMRI mice, each weighing 20-26 g, and for oral administration, using groups of 2 Sprague-Dawley rats, each weighing 120-150 g. The LD 50 was determined on groups of 10 NMRI mice, each weighing 20-26 g, after intraperitoneal administration. The post-observation period was 14 days.

[2] = test system: passive cutaneous anaphylaxis (PCA); test: anti-allergic action, passive cutaneous anaphylaxis (PCA) model in rats; assay type: in vivo; conditions: for R.A. (relative activity) / times more active than Comparative Compound V1: PCA in rats; for R.A. (relative activity): relative to V1 (=1); for ED50: Rattus norvegicus, dose which reduces diameter of color patch by 50% vs non-medicated controls, read-out: Inhibition of PCA in rats (oral), ED 50%; for times more active than Comparative Compound V1: after oral administration
Protocol: The anti-allergic action was tested on rats, using the passive cutaneous anaphylaxis (PCA) model.
Narcotized male rats (100-140 g) are sensitized by intradermal injection (into the shaved dorsal skin) of 0.1 ml of an ovalbumin antiserum. After a sensitization period of about 48 hours, the treatment (intraperitoneal or oral administration) is carried out with various dosages (10 animals/dose)of the test substances. 15-20 minutes after treatment, an antigen/Evans blue mixture (10 mg/kg of ovalbumin in 2% strength Evans blue solution) is intravenously injected into the test animals. 30 minutes later, the animals are sacrificed, the dorsal skin is removed and the diameter of the circular blue coloration is measured on the inner surface. The size of the color patches of untreated control animals can be standardized. Anti-allergic substances reduce the diameter of the color patch by an amount dependent on the dose. The ED 50% is quoted as the dose which reduces the diameter of the color patch by 50% relative to that of non-medicated control animals.

[3] = acute toxicity, rats, oral; conditions: rat, in vivo, Sprague-Dawley rats, 14 days post-observation, read-out: LD 50, rats oral
Protocol: as §1

Compound	LD50 at 336 h [1] [mg/kg]	R.A. (relative activity) ([2]; oral)	ED50 ([2]; rats, oral) [mg/kg]	times more active than Comparative Compound V1 [2] [times]	LD50 at 336 h [3] [mg/kg]	activity in PCA (in words) ([2]; rats, oral, up to 100 mg/kg)
CCOCCOC(=O)C(=O)Nc1nc(-c2ccc(OC)cc2)cs1 [Example 14, 2-Ethoxyethyl N-[4-(4-methoxyphenyl)-thiazol-2-yl]-oxamate]	~1000	14.0	0.619	–	–	–
COCCOC(=O)C(=O)Nc1nc(-c2ccccc2)cs1 [Example 7, 2-Methoxyethyl N-(4-phenyl-thiazol-2-yl)-oxamate]	655	3.87	2.24	3.87	> 2150	–
COCCOCCOC(=O)C(=O)Nc1nc(-c2ccccc2)cs1 [Example 11, 2-(ω-Methoxyethyleneoxy)-ethyl N-(4-phenyl-thiazol-2-yl)-oxamate]	705	4.01	2.16	–	> 2150	–
O=C(O)c1cc(=O)c2c(OCC(O)COc3cccc4oc(C(=O)O)cc(=O)c34)cccc2o1 [Cromolyne, reference compound]	–	–	100	–	> 2150	inactive
CCOCCOC(=O)C(=O)Nc1nc(-c2ccccc2)cs1 [Example 9, 2-Ethoxyethyl N-(4-phenyl-thiazol-2-yl)-oxamate]	956	227	0.0382	227	> 2150	–
CCOC(=O)C(=O)Nc1nc(-c2ccccc2)cs1 [Example V1, ethyl N-(4-phenyl-thiazol-2-yl)-oxamate, reference compound]	~681	1	8.67	–	> 2150	–
